Measurements taken from patent publication US20180036259A1, “NO DONORS FOR THE TREATMENT OF IMPAIRED TISSUE PERFUSION” (MIRANDAPHARMACEUTICALS AG, priority 2015, published 2018).
Entries after “also recorded” stand apart in the source; their conditions may differ.

Tests used:
[1] = test system: arterioles of adductor muscle; experiment: Arterioles density by alpha-SMA immunohistology, diabetic mice; assay type: in vivo, diabetic mouse (Bks.Cg+Lepr<db>/+Lepr<db>/OlaHsd); conditions: alpha-SMA immunohistology (FIG. 12)
Method: Immunohistology for the alpha-smooth muscle (α-SMA) antigen was employed to highlight the vascular structures within the muscles and allow accurate counting of arterioles. Briefly, sections were deparaffinised in xylene (2×5 min) and rehydrated in decreasing concentrations of ethanol (2×3 min washes in 100% ethanol, followed by 1×3 min wash in 96% ethanol). Sections were washed twice with Tris-buffered saline (TBS, 0.1 M Tris- HCl with 0.9% NaCl, pH 7.4) and incubated for 1 h at room temperature (RT) with the primary antisera (M0851, Dako, Baar, Switzerland), without pretreatment. A detection kit containing the secondary antibody and diaminobenzidine tetrahydrochloride (DAB) as chromogen was subsequently applied according to the manufacturer's protocols
(Peroxidase/DAB plus Mouse Kit; DAKO). Sections were then washed 3 times in TBS and once in distilled water and counterstained for 1 min with haematoxylin, followed by rinsing for 5 min in tap water and dehydration in ascending alcohols, clearing in xylene, coverslipping and mounting. Arterioles density was quantified in histological sections of the adductor muscle. Results were expressed as number of arterioles/mm^2 of tissue.

[2] = test system: arterioles of adductor muscle; experiment: Vascular remodelling, histopathological analysis of isolated adductor muscle; assay type: in vivo; conditions: SD rats, compared to Cilostazol and placebo (FIG. 7)
Method: In order to assess possible effects the different treatments have on vascular remodelling, histopathological analysis of isolated adductor muscle was performed and the vascular luminal- and vascular wall-properties were addressed. […] See FIG. 7 showing in the left panel the arteriolar wall area/luminar ratio in the four treatment arms.

arterioles = experiment: Arteriolar remodeling response to ischemia (wall and luminal area), diabetic mice; assay type: in vivo, diabetic mouse (Bks.Cg+Lepr<db>/+Lepr<db>/OlaHsd); conditions: arterioles (FIG. 13)
Method: These findings corroborate with the remodeling effect of CLC-1011 seen at the vascular wall. To check the arteriolar remodeling response to the ischemia, immunohistochemistry was performed as described above. The remodeling consists in the wall area per luminal area ratio. The measurement of wall and luminal areas and diameter calculation of arterioles was performed in an equal random area for each histological sample. The results shown in FIG. 13a; FIG. 13b and FIG. 13c indicate that the luminal area of the vessels increased in the CLC-1011-treated animals, but not in the Cilostazol- or the placebo-treated animals. Of note, the results indicated no change in the wall area size in either of the groups.

platelets = experiment: Platelet activation by mean fluorescence intensity in platelets isolated from treatment groups; assay type: in vivo; conditions: platelets from treated rats; resting state (FIG. 8)
Method: Platelet activation was determined using mean fluorescence measurements.

[3] = test system: ligated hind limb (unilateral hind limb ischemia); experiment: Blood perfusion by laser Doppler imaging in rat unilateral hind limb ischemia model of PAD; assay type: in vivo, Sprague-Dawley (SD) rats; conditions: SD rats; for blood perfusion in ligated limbs (laser Doppler imaging): hind limb ischemia, CLC-1011 3.6 mg/day by osmotic pump, Cilostazol 100 mg/kg bi-daily orally, over 21 days (FIG. 1)
Method: (§1) The animals were held in the Open Animal Facility at the Department of Physiology, University of Zurich and used after a suitable period allowing the animals to adapt to the new environment. A unilateral hind limb ischemia was created in the SD rats by surgical intervention, whereby the right hind limb was ligated and the vessels excised as described in Vasc. Pharmacol., 2009, 51(4):268-74. The animals were then randomly assigned to receive either Cilostazol alone (100 mg/kg/bi-daily orally by gavage), CLC-1011 (3.6 mg/day by mini-osmotic pump, e.g. Model #2004, Alzet Inc.) alone, a combination of Cilostazol (100 mg/kg/bi-daily) and CLC-1011 (3.6 mg/day by mini-osmotic pump), or placebo for a total duration of 2 or 4 weeks.
(§2) During the treatment intervals, animals were scanned using laser Doppler imaging every third day post-operation to estimate the blood perfusion in ligated limbs. Blood flow was measured using a laser Doppler imager (Moor, Axminster, UK) and analyzed with the MoorLDI™ Image Review V51 software. The animals were placed on a heating pad in order to maintain constant body temperature during the entire procedure. At the end of the 2 and 4 weeks interval, animals were sacrificed and muscles were isolated and prepared for histological analysis.

ischemic hind limb = experiment: Blood flow by laser Doppler imaging in diabetic mice with hind limb ischemia; assay type: in vivo, diabetic mouse (Bks.Cg+Lepr<db>/+Lepr<db>/OlaHsd); conditions: for blood perfusion (laser Doppler imaging): diabetic mice with hind limb ischemia (FIG. 10a)
Method: Blood flow was measured by laser Doppler imaging in diabetic mice with hind limb ischemic after treatment with CLC-1011 alone or in a combination with Cilostazol.

[4] = in humans; cited from earlier work
[5] = in vivo; cited from earlier work
adductor muscles = experiment: Immunohistochemical analysis of adductor muscles (capillary density), diabetic mice; assay type: in vivo, diabetic mouse (Bks.Cg+Lepr<db>/+Lepr<db>/OlaHsd); conditions: normalized by number of myocytes (FIG. 11a, 11b)
[6] = test system: endothelial progenitor cells; experiment: Mobilization of putative stem cells into peripheral blood by flow cytometry, diabetic mice; assay type: in vivo, diabetic mouse (Bks.Cg+Lepr<db>/+Lepr<db>/OlaHsd)
Method: Mobilization of putative stern cells from bone marrow into the peripheral blood in the placebo and treated groups mice 7 days after surgery was assessed by flow cytometry in whole blood. The cells were identified using a combination of antibodies that binds to the specific cell surface markers typical for potential angiogenic stem cells.

[7] = test system: stromal cell-derived factor 1 (SDF-1); experiment: Circulating SDF-1 levels in serum by ELISA; assay type: in vivo; conditions: rats; serum at day 6 post-ischemia; ELISA (FIG. 9)
Method: The stromal cell-derived factor 1 (SDF-1) is a circulating proangiogenic cytokine, which plays an important role in angiogenesis. Serum of rats from 4 treatment arms was collected at day 6 post-ischemia. SDF-1 levels were determined by ELISA using methods known in the art.

[8] = test system: adductor muscle of hypoxic limb; experiment: Histological analysis of muscles (new vessels, capillary and arteriole density), rat hind limb ischemia; assay type: in vivo, Sprague-Dawley (SD) rats; conditions: SD rats; for number of arterioles in isolated muscles (arterioles density/mm^2): at 4 weeks, compared to Cilostazol- and placebo-treated animals (FIG. 5)
Method: as §1, §2

[9] = whole blood flow cytometry, 7 days after surgery (FIG. 14)

Structure (SMILES)	arterioles density in the hind limb [1]	luminal area of the vessels [2]	luminal area of the vessels (arterioles)	platelet activation (mean fluorescence intensity) (platelets)	blood perfusion in ligated limbs (laser Doppler imaging) [3]	blood perfusion (laser Doppler imaging) (ischemic hind limb)	nitrate tolerance [4]	half-live [5]	capillary density in adductor muscles (adductor muscles)	recruitment of the endothelial progenitor cells ([6]; peripheral blood 7 days after surgery)	number of potential endothelial progenitor cells positive for VEGFR2 [6, 9]	number of potential endothelial progenitor cells positive for stem cell antigen 1 (Sca-1) [6, 9]	circulating SDF-1 levels in serum [7]	angiogenesis / capillary density in the adductor muscle ([8]; after 2 and 4 weeks of treatment, 28 days after surgery (FIG. 4))	number of arterioles in isolated muscles (arterioles density/mm^2) [8]	number of arterioles in isolated muscles (arterioles density/mm^2) ([8]; listed as CL-1011)	formation of new blood vessels in hypoxic limb tissue ([8]; tissue sections (FIG. 3))	time up to which the increase in blood perfusion can be detected ([3]; ligated hind limb normalized to contralateral limb (FIG. 6))	area under the curve of blood flow (ischemic hind limb; diabetic mice with hind limb ischemia (FIG. 10b))
O=C1CCc2cc(OCCCCc3nnnn3C3CCCCC3)ccc2N1 [Cilostazol, reference compound]	no change	such effect is absent	not	no effect in prevention of platelet activation and aggregation	no effect in blood flow	remains unchanged	–	–	–	–	–	–	–	–	–	–	–	–	–
NCCO[N+](=O)[O-] [AEN, 2-aminoethyl nitrate]	–	–	–	–	–	–	does not provoke nitrate tolerance	approx. 2 hours	–	–	–	–	–	–	–	–	–	–	–
NCCO[N+](=O)[O-] [CLC-1011, 2-aminoethyl nitrate]	increase of the arterioles	significantly increases luminal area	increased	significantly prevents activation of platelets in resting state	increase in blood perfusion	increase in the blood perfusion; also recorded: increased blood perfusion	–	–	increase of the capillary density	enhances the recruitment of the endothelial progenitor cells	increase in the number of potential endothelial progenitor cells	increase in the number of potential endothelial progenitor cells	induced the release of the circulating SDF-1	significant arteriogenic effects; also recorded: angiogenesis has been stimulated	significant arteriogenic effects	significantly contributes to an increase of the number of arterioles	clear increase in the formation of new blood vessels	up to 3 weeks	increase of the area under the curve
